Data from US12070443B2, “Methods of treating and preventing breast cancer with S-equol” (The Board of Regents of the University of Texas System, priority 2018, dated 2024).
Entries after “also recorded” stand apart in the source; their conditions may differ. Read-outs that look alike come from different tables or passages of the source.

Key:
[1] = test system: MDA-MB-231 cell-derived xenograft tumor; experiment: MDA-MB-231 xenograft in athymic nude mice; assay type: in vivo
Method: Further work in a preclinical animal model supports the notion of using S-equol to treat TNBC breast cancer. In immunocompromised mouse xenograft experiments, which used MDA-MB-231, a human TNBC breast cancer cell line, growth of tumors was suppressed by 60% with S-equol treatment compared to control. 5×10^6 MDA-MB-231 cells were injected orthotopically into mammary gland fat pads of 6 week-old female athymic nude mice (Harlan). When the tumor masses reached 50 to 80 mm^3 (about one week after the inoculation), the mice were given daily subcutaneous injections of S-equol (20 or 60 mg/kg per day) or PBS as a vehicle control. Tumor development was followed by caliper measurements along two orthogonal axes: length (L) and width (W) and volume (V) was estimated by the formula V=[L×(W^2)]/2. Xenograft tumors harvested from mice were fixed in 10% neutral-buffered formalin, dehydrated, embedded in paraffin, and sectioned at 3 μm thickness. Representative tumor sections from vehicle control and S-equol-treated mice were tested for Ki-67 expression to assess cell proliferation, and for ERβ pY36. Statistical significance in the experiments was assessed by two-tailed Student's t test. In all assays, p<0.05 was considered statistically significant. See, Yuan et al. 2016 listed below, which is incorporated by reference herein for all purposes.

[2] = test system: TNBC; experiment: Pilot biomarker clinical study of Ki67 in TNBC subjects; assay type: in vivo, human
Method: A pilot biomarker clinical study was performed in 20 subjects with documented TNBC to determine the effect of the ERβ agonist S-equol on Ki67 an indicator of tumor cell proliferation. Tumor cell proliferation was measured by immunohistological staining for Ki-67. See, FIG. 13 for the outline of the protocol. Ki-67 is encoded by the gene MKI67 gene and is required to maintain individual mitotic chromosomes dispersed in the cytoplasm following nuclear envelope disassembly. Measuring the fraction of Ki-67-positive cells in a tumor is known to be a reliable parameter for assessing cancer patient prognosis. Subjects with TNBC are known to have very high levels of Ki67.
Patients enrolled in the study received a history, physical, laboratory assessment, radiological imaging, and diagnostic biopsies. Immunohistochemistry (IHC) of Ki67 (proliferation marker), total ERβ, and pY36-ERβ (phosphorylated ERβ), B7H1 (also known as PDL-1) and BRCA1 (breast cancer 1, early onset) were conducted using core needle biopsy tissue samples prior to treatment. Patients were given oral S-equol 50 mg, twice daily for approximately two weeks (10-21 days) prior to the scheduled oncologic surgeries or start of primary systemic therapy. Tumor samples were obtained from the surgery or the two-week repeat core needle biopsy. Post-treatment IHC evaluation of Ki67, total ERβ, phosphorylated ERβ (pY36) and BRCA1 were obtained. Ki67 reduction is a validated surrogate marker of both short and long term hormonal therapy efficacy in trials of human breast cancer and was compared pre- and post-treatment with S-equol. […] A c-DNA microarray platform was also used to discover downstream transcriptional targets of ERβ resulting from activation by S-equol.
Women eligible for the study had newly diagnosed, previously untreated, triple negative breast cancer, with an intact primary breast tumor of any size. All stages of the disease were eligible. They took S-equol during the time they underwent standard preoperative evaluation or pre-therapeutic work-up for advanced disease, such as staging procedures or central line placement. If primary surgery was performed, tissue leftover after standard diagnostic evaluation was used for the two-week biomarker assessment. […] See, FIG. 9.
A standard procedure for acquiring core biopsy with a Bard 14-gauge needle was utilized for determining TNBC prior to enrollment. Whenever possible, the tumor tissues used for IHC analyses were acquired at the same time as the diagnostic core biopsy. The tissue samples were sent for staining of total and pY36 ERβ and Ki67, and analyzed. Testing for ERα, PR, and HER-2 was performed using validated methods. TNBC tumors were defined as less than 5% nuclear staining of carcinoma cells for ERα and PR and either 0, 1, or 2+ staining for HER-2 by IHC. Whole-Genome DASL HT platform from Illumina, which is designed for gene expression profiling with extremely low input of RNA (50 pg), was used to interrogate paired FFPE tissue obtained before and after exposure to S-equol.
The primary analysis estimated the geometric mean change of the Ki67 expression from baseline to two weeks. This was performed using a one-sample t-test of the pre/post differences in the log-transformed data, and summarized by the 95% confidence interval. […]

[3] = target: T1, ERβ pY36 (Homo sapiens, UniProt Q92731); experiment: pY36-specific phosphorylation signal in MDA-MB-231 cells; assay type: cell-based; settings: MDA-MB-231 cells (FIG. 18A)
T1 construct: MDA-MB-231, a human TNBC breast cancer cell line; endogenous in cells; host or cells: MDA-MB-231 (human TNBC line; also as xenograft tumours in athymic nude mice)
T1 sequence (Q92731 whole entry): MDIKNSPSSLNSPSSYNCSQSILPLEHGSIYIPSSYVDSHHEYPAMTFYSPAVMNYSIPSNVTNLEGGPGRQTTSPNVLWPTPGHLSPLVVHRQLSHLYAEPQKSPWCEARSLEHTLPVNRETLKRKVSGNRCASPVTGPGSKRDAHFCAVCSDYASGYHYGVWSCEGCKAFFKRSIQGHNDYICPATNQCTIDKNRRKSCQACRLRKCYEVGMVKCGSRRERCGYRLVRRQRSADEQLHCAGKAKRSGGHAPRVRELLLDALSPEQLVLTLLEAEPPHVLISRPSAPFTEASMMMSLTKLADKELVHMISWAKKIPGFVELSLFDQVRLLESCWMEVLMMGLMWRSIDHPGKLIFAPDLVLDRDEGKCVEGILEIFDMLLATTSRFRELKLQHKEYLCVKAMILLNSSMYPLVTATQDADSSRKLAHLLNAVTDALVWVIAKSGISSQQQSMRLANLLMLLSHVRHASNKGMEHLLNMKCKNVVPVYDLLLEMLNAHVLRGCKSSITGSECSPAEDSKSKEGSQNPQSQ

[4] = test system: AT3 mammary tumor cell line; experiment: AT3 mammary tumor challenge in mice, S-equol and/or anti-PD-1; assay type: in vivo; settings: AT3 tumors
Method: The following three murine mammary tumor lines were tested to determine the effects of a PD-1 inhibitor, S-equol and a combination of the two therapies on tumor growth: (1) E0771 (B6 background), (2) AT-3 (B6 background), and (3) 4T1 (BalbC background). This experimental design includes four arms (using AT-3 as an example): (1) controls, (2) αPD-1, (3) S-equol, and (4) αPD-1+S-equol (FIG. 3) by injecting into mice 2×10^5 cells subcutaneously into the 4th mammary gland fat pad.

[5] = test system: Ki67 expression; settings: after two weeks, IMPACT trial; cited from earlier work
[6] = test system: TNBC; settings: cited from earlier work
[7] = of 17 evaluable patients, S-equol 50 mg twice daily

Question: What does the source list for `Oc1ccc([C@H]2COc3cc(O)ccc3C2)cc1` [S-equol]?
Answer: growth of tumors suppressed compared to control ([1]; daily subcutaneous S-equol 20 or 60 mg/kg per day): 60%; xenograft tumor growth ([1]; in words (FIGS. 8, 15, 18B)): inhibits tumor growth in vivo; also recorded: reduces the growth of TNBC cells; also recorded: inhibited; patients with 0-20% reduction in Ki-67 [2, 7]: 7 patients; patients with greater than 20% reduction in Ki-67 [2, 7]: one; patients with greater than 30% reduction in Ki-67 [2, 7]: 4 patients; patients with no reduction in Ki-67 [2, 7]: 5 patients; Ki67 change pre- vs post-treatment ([2]; oral S-equol 50 mg twice daily, 10-21 days, TNBC patients): measurable decrease in Ki67; also recorded: measurable decline in Ki67; pY36-specific phosphorylation signal [3]: enhanced; tumor size ([4]; excised tumors (FIG. 4C)): reduce tumor size compared to control; tumor weight ([4]; anti-PD-1 200 μg every 3 days, S-equol 50 mg/kg per day (FIG. 4B)): reduce tumor weight compared to control; tumor volume ([4]; anti-PD-1 200 μg every 3 days, S-equol 50 mg/kg per day, over 35 days post-challenge (FIG. 4A)): reduce tumor volume compared to control

Question: Which “change in the geometric mean of Ki67 expression” value [5] does the source give for `CC(C)(C#N)c1cc(Cn2cncn2)cc(C(C)(C)C#N)c1` [anastrazole] here?
Answer: −76%

Question: With `CC/C(=C(\c1ccccc1)c1ccc(OCCN(C)C)cc1)c1ccccc1` [tamoxifen] as the molecule, how does the “change in the geometric mean of Ki67 expression” value [5] read?
Answer: −59.5%

Question: With atezolizumab: an αPD-L1 antibody as the molecule, how does the response rate ([6]; 21 evaluable PD-L1 expressing TNBC tumors) read?
Answer: 19%

Question: For avelumab: another αPD-L1 antibody, which response rate ([6]; 168 TNBC tumors unselected for PD-L1 expression) is on record?
Answer: 8.6%

Question: For pembrolizumab: an αPD-1 antibody, which response rate ([6]; Phase 1, 27 women, pretreated chemotherapy resistant metastatic TNBC expressing PD-L1) is on record?
Answer: 18.4%
